The text below walks through data of patent US9890147B2 (BAYER PHARMA AKTIENGESELLSCHAFT, priority 2012, dated 2018).

One assay has as its system LAPC-4 cells. Kind of assay: Cell proliferation assay (alamarBlue), LAPC-4. Type of assay: cell-based. The note with it: Homo sapiens, LAPC4; inhibition of cell proliferation, LAPC-4 (prostate cancer), 1 nM methyltrienolone, 168 hours. On the procedure: (§1) In accordance with the invention, the capability of the substances to inhibit cell proliferation was determined Cell viability was determined using the alamarBlue® reagent (Invitrogen) in a Victor X3 Multilabel Reader (Perkin Elmer). The excitation wavelength was 530 nm and the emission wavelenth […].
The LAPC-4 cells (ATCC, PTA-1441TM) were sown at a concentration of 4000 cells/well in 100 μl growth medium (RPMI1640, 2 mM L-glutamine, 10% cFCS) on 96-well microtitre plates. A day later, the LAPC-4 cells were treated with 1 nM methyltrienolone and various substance dilutions.
(§2) After an overnight incubation at 37° C., the fluorescence values (CI values) were determined. The plates were then treated with various substance dilutions (1E-5 M, 3E-6 M, 1E-6M, 3E-7 M, 1E-7 M, 3E-8 M, 1E-8 M) and incubated at 37° C. for 72 (MV4-11-, LOX-IMVI cells), 96 (MOLM-13-, B16F10-, MDA-MB-431-, Caov-3 cells), 120 (MOLP-8-, KMS-12-PE cells) or 168 (LAPC-4 cells) hours. The fluorescence values (CO values) were then determined. For the data analysis, the CI values were subtracted from the CO values and the results were compared between cells treated with different dilutions of the substance or with buffer solution only. These were used to calculate the IC 50 values (substance concentration required for 50% inhibition of cell proliferation).

For a further assay, the system named is B16F10 cells. Kind of assay: Cell proliferation assay (alamarBlue), B16F10. Type of assay: cell-based. The following applies: Mus musculus, B16-F10, 96 hours incubation, inhibition of cell proliferation. The procedure: as §1
The B16F10 cells (ATCC, CRL-6475) were sown at a concentration of 300-500 cells/well in 100 μl growth medium (DMEM with phenol red, 10% FCS) on 96-well microtitre plates.
as §2
A general note: Alamar Blue is a resazurin reagent that responds to reducing activity.

For the next assay, the target named is T1, BRD4 (BD1) (Homo sapiens, UniProt O60885).
T1 construct: with relatively long constructs also being possible, preferably amino acids 44-168; made in house; host or cells: E. coli
As to the kind of experiment: Binding assay BRD4/acetylated peptide H4 (TR-FRET protein-protein interaction assay). The method in brief:
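His6-BRD4 BD1 (aa 67-152, E. coli), usually 10 nM, with biotinylated tetra-acetylated H4 peptide in HEPES pH 7.5 buffer; 11 compound concentrations 0.1 nM–20 μM in duplicate, 10 min preincubation, 1 h at 22 °C then ≥3 h at 4 °C. TR-FRET 665/620 ratio; IC50 by 4-parameter fit.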
(In general: Time-resolved FRET reads energy transfer from a long-lived donor to a nearby acceptor.)

The subject of a further assay is MDA-MB-231 cells. As to the kind of experiment: Cell proliferation assay (alamarBlue), MDA-MB-231. Type of assay: cell-based. The following applies: Homo sapiens; inhibition of cell proliferation, MDA-MB-231 (breast carcinoma), 96 hours. On the procedure: as §1
The MDA-MB-231 cells (DSMZ, ACC 732) were sown at a concentration of 4000 cells/well in 100 μl growth medium (DMEM/Ham's F12 medium, 10% FCS) on 96-well microtitre plates. The Caov-3 cells (ATCC, HTB-75) were sown at a concentration of 2000 cells/well in 100 μl growth medium (MEM Earle's medium, 10% FCS) on 96-well microtitre plates.
as §2

For the next assay, the system named is MOLM-13 cells. As to the kind of experiment: Cell proliferation assay (alamarBlue), MOLM-13. Type of assay: cell-based. The note with it: Homo sapiens, 96 hours incubation, inhibition of cell proliferation. The method in brief: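 Cells in RPMI1640/10% FCS read by alamarBlue fluorescence (ex 530, em 590 nm) after overnight 37 °C incubation, then treated at 1E-5 to 1E-8 M for 96 h. Pre-treatment values subtracted from endpoint values and compared with buffer-only wells; IC50 is 50% proliferation inhibition.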

A further assay deals with LOX-IMVI cells. As to the kind of experiment: Cell proliferation assay (alamarBlue), LOX-IMVI. Type of assay: cell-based. The note with it: Homo sapiens, 72 hours incubation, inhibition of cell proliferation. The method in brief:
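Cells seeded at 1000/well in RPMI1640 with 10% FCS, incubated overnight at 37° C, then treated with dilutions from 1E-5 to 1E-8 M for 72 h. Viability read by alamarBlue fluorescence (ex 530/em 590 nm); pre-treatment values subtracted and compared with buffer-only cells to derive IC50.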

For another assay, the system named is MOLP-8 cells. Kind of assay: Cell proliferation assay (alamarBlue), MOLP-8. Type of assay: cell-based. The following applies: Homo sapiens, 120 hours incubation, inhibition of cell proliferation. The method in brief:
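MOLP-8 cells in RPMI1640 with 20% FCS, 4000 cells/well, treated overnight after seeding with substance at 1E-5 to 1E-8 M for 120 h at 37° C. Viability read by alamarBlue fluorescence (ex 530, em 590); pre-treatment values subtracted, compared with buffer-only cells to derive IC50.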

For another assay, the system named is Caov-3 cells. Kind of assay: Cell proliferation assay (alamarBlue), Caov-3. Type of assay: cell-based. The following applies: Homo sapiens; inhibition of cell proliferation, Caov-3 (ovarian carcinoma), 96 hours. The method in brief: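 Caov-3 (MEM Earle's, 10% FCS, 2000 cells/well) and MDA-MB-231 (DMEM/Ham's F12, 10% FCS, 4000 cells/well) were treated after overnight attachment with 1E-5 to 1E-8 M compound. Caov-3 exposure was 96 h. alamarBlue fluorescence (ex 530, em 590 nm) was read after background subtraction of day-0 values, and IC50 calculated versus buffer-treated cells.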

For the next assay, the system named is MV4-11 cells. As to the kind of experiment: Cell proliferation assay (alamarBlue), MV4-11. Type of assay: cell-based. The note with it: Homo sapiens, 72 hours incubation, inhibition of cell proliferation. The method in brief:
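Cells seeded at 5000/well in RPMI1640 + 10% FCS, incubated overnight at 37° C, then treated with compound (1E-5 to 1E-8 M) for 72 h at 37° C. Viability by alamarBlue fluorescence (ex 530/em 590 nm); pre-treatment readings subtracted, IC50 derived versus buffer-treated cells.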

For the next assay, the system named is KMS-12-PE cells. As to the kind of experiment: Cell proliferation assay (alamarBlue), KMS-12-PE. Type of assay: cell-based. The note with it: Homo sapiens, 120 hours incubation, inhibition of cell proliferation. The method in brief: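 KMS-12-PE myeloma cells in RPMI1640 with 20% FCS were exposed to compound (1E-5 to 1E-8 M) for 120 h at 37° C. AlamarBlue fluorescence (ex 530, em 590 nm) read before and after treatment; the difference versus buffer-treated cells gave IC50.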

On to `CNC(=O)N1N=C(c2ccc(Cl)cc2)c2cc(OC(F)(F)F)ccc2CC1C` (racemic) [Example 1, (±)-1-(4-Chlorophenyl)-N,4-dimethyl-8-(trifluoromethoxy)-4,5-dihydro-3H-2,3-benzodiazepine-3-carboxamide], for which the IC50 in the assay with LAPC-4 cells was found to be 600 nM; with B16F10 cells, 690 nM; at BRD4 (BD1), 190 nM; in the assay with MDA-MB-231 cells, 900 nM; with MOLM-13 cells, 1260 nM.

With `CNC(=O)N1N=C(c2ccc(Cl)cc2)c2cc(OC(F)(F)F)c(Cl)cc2CC1C` (racemic) [Example 15], the IC50 on BRD4 (BD1) was determined as 870 nM; with MDA-MB-231 cells, 6230 nM; in the assay on MOLM-13 cells, 3450 nM.

As to `CNC(=O)N1N=C(c2ccc(Cl)cc2)c2cc(N3CCOCC3)ccc2C[C@@H]1C` [Example 11.1, (4S)-1-(4-Chlorophenyl)-N,4-dimethyl-8-(morpholin-4-yl)-4,5-dihydro-3H-2,3-benzodiazepine-3-carboxamide], the 50% inhibitory concentration (IC50) with LAPC-4 cells was found to be 310 nM; at BRD4 (BD1), 80 nM; in the assay with MDA-MB-231 cells, 1110 nM; with MOLM-13 cells it was 570 nM.

In the case of `CNC(=O)N1N=C(c2ccc(Cl)cc2)c2cc(N3CCOCC3)ccc2C[C@H]1C` [Example 11.2, (4R)-1-(4-Chlorophenyl)-N,4-dimethyl-8-(morpholin-4-yl)-4,5-dihydro-3H-2,3-benzodiazepine-3-carboxamide], the IC50 on BRD4 (BD1) came to 2510 nM; with MDA-MB-231 cells it was 10000 nM; with MOLM-13 cells it was 7740 nM.

Consider `CNC(=O)N1N=C(c2ccc(-n3nc(C)cc3C)cc2)c2cc(OC)ccc2C[C@@H]1C` [Example 16, (4S)-1-[4-(3,5-Dimethyl-1H-pyrazol-1-yl)phenyl]-8-methoxy-N,4-dimethyl-4,5-dihydro-3H-2,3-benzodiazepine-3-carboxamide], for which the IC50 in the assay with LAPC-4 cells was 110 nM; in the assay on LOX-IMVI cells, 640 nM; with MOLP-8 cells, 290 nM; in the assay on Caov-3 cells, 370 nM; on BRD4 (BD1), 50 nM; in the assay on MDA-MB-231 cells, 470 nM. Moreover, the IC50 with MV4-11 cells came to 270 nM; in the assay with MOLM-13 cells it was 220 nM; in the assay on KMS-12-PE cells it was 250 nM.

`CNC(=O)N1N=C(c2ccc(N3CCOCC3)cc2)c2cc(OC)ccc2C[C@@H]1C` [Example 17, (4S)-8-Methoxy-N,4-dimethyl-1-[4-(morpholin-4-yl)phenyl]-4,5-dihydro-3H-2,3-benzodiazepine-3-carboxamide]: the IC50 came to 100 nM in the assay on LAPC-4 cells; 300 nM in the assay on LOX-IMVI cells; 110 nM in the assay on MOLP-8 cells; 220 nM with Caov-3 cells; 40 nM at BRD4 (BD1); 210 nM in the assay on MDA-MB-231 cells. Further, the values for the IC50 with MV4-11 cells, in the assay with MOLM-13 cells and in the assay with KMS-12-PE cells were 130 nM, 170 nM and 110 nM, respectively.

With `CNC(=O)N1N=C(c2ccc(-c3cnoc3)cc2)c2cc(OC)ccc2C[C@@H]1C` [Example 18, (4S)-1-[4-(4-Isoxazolyl)phenyl]-8-methoxy-N,4-dimethyl-4,5-dihydro-3H-2,3-benzodiazepine-3-carboxamide], the IC50 turned out to be 760 nM in the assay with LOX-IMVI cells; 340 nM in the assay with MOLP-8 cells; 480 nM with Caov-3 cells; 160 nM on BRD4 (BD1); 280 nM with MDA-MB-231 cells; 300 nM in the assay on MV4-11 cells. Also, the results for the IC50 with MOLM-13 cells and in the assay with KMS-12-PE cells were 250 nM and 350 nM, respectively.

Consider `CNC(=O)N1N=C(c2ccc(-c3ccnn3C)cc2)c2cc(OC)ccc2C[C@@H]1C` [Example 19, (4S)-8-methoxy-N,4-dimethyl-1-[4-(1-methyl-1H-pyrazol-5-yl)phenyl]-4,5-dihydro-3H-2,3-benzodiazepine-3-carboxamide], for which the IC50 in the assay on LAPC-4 cells was determined as 110 nM; in the assay with LOX-IMVI cells, 650 nM; in the assay on MOLP-8 cells, 270 nM; in the assay with Caov-3 cells it was 410 nM; on BRD4 (BD1), 40 nM; in the assay on MV4-11 cells, 270 nM. Moreover, the IC50 in the assay with MOLM-13 cells was 170 nM; with KMS-12-PE cells, 270 nM.

Regarding `CNC(=O)N1N=C(c2ccc(-c3c(C)noc3C)cc2)c2cc(OC)ccc2C[C@@H]1C` [Example 20, (4S)-1-[4-(3,5-dimethyl-4-isoxazolyl)phenyl]-8-methoxy-N,4-dimethyl-4,5-dihydro-3H-2,3-benzodiazepine-3-carboxamide], the IC50 is 120 nM with LAPC-4 cells; 330 nM with LOX-IMVI cells; 120 nM in the assay with MOLP-8 cells; 240 nM in the assay on Caov-3 cells; 70 nM at BRD4 (BD1); 220 nM with MDA-MB-231 cells. The IC50 was 140 nM in the assay with MV4-11 cells, 190 nM with MOLM-13 cells and 110 nM with KMS-12-PE cells.

Consider `CNC(=O)N1N=C(c2ccc(-n3nc(COC)cc3C)cc2)c2cc(OC)ccc2C[C@@H]1C` [Example 26, (4S)-8-methoxy-1-{4-[3-(methoxymethyl)-5-methyl-1H-pyrazol-1-yl]phenyl}-N,4-dimethyl-4,5-dihydro-3H-2,3-benzodiazepine-3-carboxamide], for which the 50% inhibitory concentration (IC50) in the assay on LAPC-4 cells stood at 130 nM; at BRD4 (BD1), 40 nM; in the assay on MOLM-13 cells it was 430 nM.

As to `CNC(=O)N1N=C(c2ccc(-n3nc(C)cc3COC)cc2)c2cc(OC)ccc2C[C@@H]1C` [Example 27, (4S)-8-methoxy-1-{4-[5-(methoxymethyl)-3-methyl-1H-pyrazol-1-yl]phenyl}-N,4-dimethyl-4,5-dihydro-3H-2,3-benzodiazepine-3-carboxamide], the IC50 was 180 nM in the assay on LAPC-4 cells, 30 nM at BRD4 (BD1) and 630 nM with MOLM-13 cells.

For `CNC(=O)N1N=C(c2ccc(-n3nc(-c4ccccn4)cc3C3CC3)cc2)c2cc(OC)ccc2C[C@@H]1C` [Example 28, (4S)-1-{4-[5-cyclopropyl-3-(pyridin-2-yl)-1H-pyrazol-1-yl]phenyl}-8-methoxy-N,4-dimethyl-4,5-dihydro-3H-2,3-benzodiazepine-3-carboxamide], the IC50 in the assay on LAPC-4 cells is 20 nM; in the assay on LOX-IMVI cells it was 40 nM; in the assay on MOLP-8 cells, 20 nM; in the assay on Caov-3 cells, 40 nM; on BRD4 (BD1), 10 nM; with MV4-11 cells, 30 nM. The IC50 with MOLM-13 cells was determined as 40 nM; in the assay on KMS-12-PE cells, 30 nM.

Usually IC50 stands for the concentration that inhibits the measured activity by half. The low end stands for greater potency in that assay, the high end for weaker potency in that assay.
